{"source": "ChEMBL document CHEMBL6121054", "about": "“Discovery of Metabolic Reprogramming 2-Quinolones as Effective Antimicrobials for MRSA-Infected Wound Therapy” (J Med Chem, 2025)", "key": {"[1]": {"test_system": "Staphylococcus aureus", "assay": "Bactericidal activity against methicillin-resistant Staphylococcus aureus USA300 at 4 times MIC measured for 12 to 24 hrs by time-kill assay", "format": "functional, organism-based", "conditions": "time 12-24 hrs"}, "[2]": {"test_system": "Staphylococcus aureus", "assay": "Antibacterial activity against Staphylococcus aureus DU1090 incubated for 16 to 24 hrs by broth microdilution method", "format": "functional", "conditions": "time 16-24 hrs"}, "[3]": {"test_system": "A549", "assay": "Reversal of Staphylococcus aureus USA300-induced cytotoxicity in human A549 cells infected with bacteria assessed as reduction in number of dead cells at 4 to 8 ug/ml preincubated with compound followed by […] infection for 5 hrs by Calcein AM/Ethidium homodimer-1 dye based analysis", "format": "functional, cell-based", "conditions": "dose 4-8 µg/ml"}, "[4]": {"test_system": "Staphylococcus aureus", "assay": "Antibacterial activity against methicillin-resistant Staphylococcus aureus infected in BALB/c mouse wound model assessed as decrease in CD68 expression in skin tissue at 20 to 80 mg/kg administered topically on days 0, 3 and 6 measured after 12 days by IHC analysis", "format": "functional, organism-based", "conditions": "dose 20-80 mg/kg, route top, time 12.0 day"}, "[5]": {"test_system": "Staphylococcus aureus", "assay": "Effect on pyrimidine metabolism in Staphylococcus aureus USA300 at 4 times MIC by KEGG analysis", "format": "functional, organism-based"}, "[6]": {"test_system": "Klebsiella pneumoniae", "assay": "Antibacterial activity against Klebsiella pneumoniae 13b5 incubated for 16 to 24 hrs by broth microdilution method", "format": "functional", "conditions": "time 16-24 hrs"}, "[7]": {"test_system": "Staphylococcus aureus", "assay": "Antibacterial activity against Staphylococcus aureus ATCC 29213 incubated for 16 to 24 hrs by broth microdilution method", "format": "functional", "conditions": "time 16-24 hrs"}, "[8]": {"test_system": "Staphylococcus aureus", "assay": "Antibacterial activity against Staphylococcus aureus USA300 incubated for 16 to 24 hrs by broth microdilution method", "format": "functional", "conditions": "time 16-24 hrs"}, "[9]": {"test_system": "Staphylococcus aureus", "assay": "Disruption of cell membrane integrity in Staphylococcus aureus USA300 assessed as increase in red fluorescence at 1 to 4 times MIC by SYTO-9/PI dye based CLSM analysis", "format": "functional, organism-based"}, "[10]": {"test_system": "Listeria monocytogenes", "assay": "Antibacterial activity against Listeria monocytogenes EGD incubated for 16 to 24 hrs by broth microdilution method", "format": "functional", "conditions": "time 16-24 hrs"}, "[11]": {"test_system": "Staphylococcus aureus", "assay": "Effect on biosynthesis of co-factors in Staphylococcus aureus USA300 at 4 times MIC by KEGG analysis", "format": "functional, organism-based"}, "[12]": {"test_system": "Staphylococcus aureus", "assay": "Antibacterial activity against Staphylococcus aureus ATCC 25904 incubated for 16 to 24 hrs by broth microdilution method", "format": "functional", "conditions": "time 16-24 hrs"}, "[13]": {"test_system": "Staphylococcus aureus", "assay": "Bactericidal activity against Staphylococcus aureus ATCC 25923", "format": "functional"}, "[14]": {"test_system": "Staphylococcus aureus", "assay": "Inhibition of biofilm formation in Staphylococcus aureus USA300 assessed as decrease in green fluorescence at 0.06 to 0.13 ug/ml incubated for 24 hrs by SYTO 9 dye based CLSM analysis", "format": "functional, organism-based", "conditions": "dose 0.06-0.13 µg/ml"}, "[15]": {"test_system": "Caco-2", "assay": "Cytotoxicity against human Caco-2 cells assessed as cell viability upto 8 ug/ml incubated for 6 hrs by LDH assay", "format": "toxicity, cell-based", "conditions": "caco-2, 6 h, dose < 8 µg/ml"}, "[16]": {"test_system": "Klebsiella pneumoniae", "assay": "Bactericidal activity against Klebsiella pneumoniae ATCC 43816", "format": "functional"}, "[17]": {"test_system": "Staphylococcus aureus", "assay": "Antibacterial activity against methicillin-resistant Staphylococcus aureus infected in BALB/c mouse wound model assessed as reversal of inflammation-induced IL-6 level in wound at 20 to 80 mg/kg administered topically on days 0, 3 and 6 measured after 12 days by ELISA", "format": "functional, organism-based", "conditions": "dose 20-80 mg/kg, route top, time 12.0 day"}, "[18]": {"test_system": "Staphylococcus aureus", "assay": "Antibacterial activity against methicillin-resistant Staphylococcus aureus infected in BALB/c mouse wound model assessed as increase in thickness of granulation tissue at 20 to 80 mg/kg administered topically on days 0, 3 and 6 measured for 6 to 12 days by H and E staining based analysis", "format": "functional, organism-based", "conditions": "dose 20-80 mg/kg, route top, time 6-12 day"}, "[19]": {"test_system": "Staphylococcus aureus", "assay": "Antibacterial activity against methicillin-resistant Staphylococcus aureus infected in BALB/c mouse wound model assessed as neovascularization in skin tissue at 20 to 80 mg/kg administered topically on days 0, 3 and 6 measured for 6 to 12 days by H and E staining based analysis", "format": "functional, organism-based", "conditions": "dose 20-80 mg/kg, route top, time 6-12 day"}, "[20]": {"test_system": "Staphylococcus aureus", "assay": "Bactericidal activity against Staphylococcus aureus ATCC 25904", "format": "functional"}, "[21]": {"test_system": "Staphylococcus aureus", "assay": "Antibacterial activity against methicillin-resistant Staphylococcus aureus infected in BALB/c mouse wound model assessed as angiogenesis in skin tissue by measuring increase in CD31 expression at 20 to 80 mg/kg administered topically on days 0, 3 and 6 measured after 12 days by IHC analysis", "format": "functional, organism-based", "conditions": "dose 20-80 mg/kg, route top, time 12.0 day"}, "[22]": {"test_system": "Staphylococcus aureus", "assay": "Effect on TCA cycle in Staphylococcus aureus USA300 at 4 times MIC by KEGG analysis", "format": "functional, organism-based"}, "[23]": {"test_system": "Staphylococcus aureus", "assay": "Effect on tyrosine metabolism in Staphylococcus aureus USA300 at 4 times MIC by KEGG analysis", "format": "functional, organism-based"}, "[24]": {"test_system": "A549", "assay": "Reversal of Staphylococcus aureus USA300-induced cytotoxicity in human A549 cells infected with bacteria assessed as cell viability upto 8 ug/ml preincubated with compound followed by […] infection for 5 hrs by LDH assay", "format": "functional, cell-based", "conditions": "dose <= 8.0 µg/ml"}, "[25]": {"test_system": "Staphylococcus aureus", "assay": "Upregulation of ATP level in Staphylococcus aureus USA300 upto 0.25 ug/ml incubated for 5 hrs", "format": "functional, organism-based", "conditions": "dose <= 0.25 µg/ml"}, "[26]": {"test_system": "Staphylococcus aureus", "assay": "Eradication of mature biofilm formation in Staphylococcus aureus USA300 incubated for 12 hrs by crystal violet staining based analysis", "format": "functional, organism-based"}, "[27]": {"test_system": "Escherichia coli", "assay": "Antibacterial activity against Escherichia coli ATCC 25922 incubated for 16 to 24 hrs by broth microdilution method", "format": "functional", "conditions": "time 16-24 hrs"}, "[28]": {"test_system": "Staphylococcus aureus", "assay": "Antibacterial activity against Staphylococcus aureus USA300 assessed as acceleration of TCA cycle measured by increase in mqo mRNA level upto 0.25 ug/ml incubated for 6 hrs by RT-PCR analysis", "format": "functional, organism-based", "conditions": "dose <= 0.25 µg/ml"}, "[29]": {"test_system": "Klebsiella pneumoniae", "assay": "Antibacterial activity against Klebsiella pneumoniae ATCC 43816 incubated for 16 to 24 hrs by broth microdilution method", "format": "functional", "conditions": "time 16-24 hrs"}, "[30]": {"test_system": "Staphylococcus aureus", "assay": "Impairment of antioxidant defense system in Staphylococcus aureus USA300 upto 0.25 ug/ml by WST-8 assay", "format": "functional, organism-based", "conditions": "dose <= 0.25 µg/ml"}, "[31]": {"assay": "Hemolytic activity in rabbit RBCs upto 8 ug/ml incubated for 1 hr", "format": "toxicity, cell-based, Oryctolagus cuniculus", "conditions": "erythrocyte, dose < 8 µg/ml"}, "[32]": {"test_system": "Staphylococcus aureus", "assay": "Antibacterial activity against methicillin-resistant Staphylococcus aureus MRSA 2 incubated for 16 to 24 hrs by broth microdilution method", "format": "functional", "conditions": "time 16-24 hrs"}, "[33]": {"test_system": "Escherichia coli", "assay": "Bactericidal activity against Escherichia coli ATCC ZJ487", "format": "functional"}, "[34]": {"test_system": "A549", "assay": "Cytotoxicity against human A549 cells assessed as cell viability upto 8 ug/ml incubated for 6 hrs by LDH assay", "format": "toxicity, cell-based", "conditions": "a549, 6 h, dose < 8 µg/ml"}, "[35]": {"test_system": "Staphylococcus aureus", "assay": "Antibacterial activity against methicillin-resistant Staphylococcus aureus infected in BALB/c mouse wound model assessed as reduction in bacterial load at 20 to 80 mg/kg administered topically on days 0, 3 and 6 measured after 6 days", "format": "functional, organism-based", "conditions": "dose 20-80 mg/kg, route top, time 6.0 day"}, "[36]": {"test_system": "Acinetobacter baumannii", "assay": "Bactericidal activity against Acinetobacter baumannii ATCC 17978", "format": "functional"}, "[37]": {"test_system": "Staphylococcus aureus", "assay": "Bactericidal activity against methicillin-resistant Staphylococcus aureus USA300 at >= 1 ug/ml measured upto 24 hrs by time-kill assay relative to control", "format": "functional", "conditions": "dose >= 1 µg/ml"}, "[38]": {"test_system": "Staphylococcus aureus", "assay": "Inhibition of biofilm formation in Staphylococcus aureus USA300 upto 0.13 ug/ml incubated for 24 hrs by crystal violet staining based analysis", "format": "functional, organism-based", "conditions": "dose <= 0.13 µg/ml"}, "[39]": {"test_system": "Staphylococcus aureus", "assay": "Disruption of cell membrane integrity in Staphylococcus aureus USA300 assessed as protein leakage at 0.25 ug/ml incubated for 6 hrs MIC by SDS-PAGE analysis", "format": "functional, organism-based", "conditions": "dose 0.25 µg/ml"}}, "note": "Activity calls are given as the source filed them. The rule behind the calls is not given here.", "data": [{"smiles": "CCn1c(=O)c(C(=O)Nc2nnc(-c3ccc(C)cn3)s2)c(O)c2ccccc21", "values": [{"measurement": "Activity", "setting": "[1]", "result": "Active"}, {"measurement": "MIC", "setting": "[2]", "result": 0.02, "unit": "µg/mL"}, {"measurement": "Activity", "setting": "[3]", "result": "Active"}, {"measurement": "Activity", "setting": "[4]", "result": "Active"}, {"measurement": "Activity", "setting": "[5]", "result": "Active"}, {"measurement": "MIC", "setting": "[6]", "result": "> 512", "unit": "µg/mL"}, {"measurement": "MIC", "setting": "[7]", "result": 0.03, "unit": "µg/mL"}, {"measurement": "MIC", "setting": "[8]", "result": 0.04, "unit": "µg/mL"}, {"measurement": "Activity", "setting": "[9]", "result": "Active"}, {"measurement": "MIC", "setting": "[10]", "result": 0.02, "unit": "µg/mL"}, {"measurement": "Activity", "setting": "[11]", "result": "Active"}, {"measurement": "MIC", "setting": "[12]", "result": 0.02, "unit": "µg/mL"}, {"measurement": "MBC", "setting": "[13]", "result": 0.1, "unit": "µg/mL"}, {"measurement": "inhibition", "setting": "[14]", "result": "Active"}, {"measurement": "Activity", "setting": "[15]", "result": "Non-toxic"}, {"measurement": "MBC", "setting": "[16]", "result": "> 512", "unit": "µg/mL"}, {"measurement": "Activity", "setting": "[17]", "result": "Active"}, {"measurement": "Activity", "setting": "[18]", "result": "Active"}, {"measurement": "Activity", "setting": "[19]", "result": "Active"}, {"measurement": "MBC", "setting": "[20]", "result": 0.17, "unit": "µg/mL"}, {"measurement": "Activity", "setting": "[21]", "result": "Active"}, {"measurement": "Activity", "setting": "[22]", "result": "Active"}, {"measurement": "Activity", "setting": "[23]", "result": "Active"}, {"measurement": "Activity", "setting": "[24]", "result": "Active"}, {"measurement": "Activity", "setting": "[25]", "result": "Active"}, {"measurement": "Activity", "setting": "[26]", "result": "Active"}, {"measurement": "MIC", "setting": "[27]", "result": "> 512", "unit": "µg/mL"}, {"measurement": "Activity", "setting": "[28]", "result": "Active"}, {"measurement": "MIC", "setting": "[29]", "result": "> 512", "unit": "µg/mL"}, {"measurement": "Activity", "setting": "[30]", "result": "Active"}, {"measurement": "Activity", "setting": "[31]", "result": "Non-toxic"}, {"measurement": "MIC", "setting": "[32]", "result": 0.02, "unit": "µg/mL"}, {"measurement": "MBC", "setting": "[33]", "result": "> 512", "unit": "µg/mL"}, {"measurement": "Activity", "setting": "[34]", "result": "Non-toxic"}, {"measurement": "Activity", "setting": "[35]", "result": "inactive"}, {"measurement": "MBC", "setting": "[36]", "result": "> 512", "unit": "µg/mL"}, {"measurement": "Activity", "setting": "[37]", "result": "~100", "unit": "%"}, {"measurement": "inhibition", "setting": "[38]", "result": "Active"}, {"measurement": "Activity", "setting": "[39]", "result": "Active"}]}]}
